# According to patent publication US20110313015A1, “Fludioxonil Derivatives” (Bayer CropScience AG, priority 2010, published 2011):
# System: common bent (Agrostis capillaris)
# Test: Herbicidal early post-emergence action (microtitre plate, visual assessment of damage)
# Type: in vivo
# Settings: application rate 1900 g/ha, assessed after 10 days vs untreated controls, 100% = plants have died, 0% = like control plants
# Protocol: Seeds of mono- and dicotyledonous harmful plants are, in a microtitre plate, placed into sand. The compounds according to the invention, formulated as emulsion concentrates (EC), are then applied as an aqueous emulsion using spray nozzles adapted to the uHTVS to the germinated plants. After the treatment, the microtitre plates are placed in a climatized chamber and kept under good growth conditions for the test plants. The visual assessment of the damage to the test plants is carried out after a trial period of 10 days by comparison with untreated controls (herbicidal activity in percent (%): 100% activity=the plants have died, 0% activity=like control plants).
compound,measurement,value
COC(=O)CCn1cc(C#N)c(-c2cccc3c2OC(F)(F)O3)c1 [No. 1],herbicidal activity,100%
